Here are results for 63 molecules from patent publication US10450300B2, “Wnt signaling pathway inhibitors and therapeutic applications thereof” (Suzhou Yunxuan Yiyao Keji Youxian Gongsi, priority 2015, dated 2019).

For orientation: IC50 means the midpoint of a concentration-inhibition curve.

In the experiment the test system is Wnt pathway. Briefly: Wnt pathway Super-top flash (STF) reporter gene assay (primary assay). The class given is cell-based. The settings on record: HEK293 STF cells co-cultured 1:1 with L Wnt3A cells; 48 h incubation; inhibition of luminescence signaling. How it is done: The primary assay is based on Wnt pathway Super-top flash (STF) reporter gene assay:
HEK293 STF stable clones (HEK293 cells stably transfected with “Super-Top Flash” TCF-luciferase reporter plasmid) were kept in complete culture medium (DMEM with 4 mM L-Gln, 1.5 g/L sodium bicarbonate and 4.5 g/L glucose containing 6 μg/mL Blasticidin and 10% FBS). L Wnt3A cells (CRL-2647, ATCC) were kept in DMEM (Gibico) containing 10% FBS (Hyclone). HEK293 STF and L Wnt3A cells were harvested when 90% confluence and cell suspension was mixed with a fixed ratio of 1:1 (HEK293 STF: L Wnt3A). 100 μL/well of mixed cells suspension was added to the 96-well-plate with final cell concentration of 12,000 cells/well and then cultured for an additional 24 hours before adding compounds.
Compounds were diluted in DMSO in sequence and then diluted with DMEM medium. 20 μL medium containing compound was added to the cells according to the pre-setting dose. Cell plates were incubated at 37° C. for an additional 48 hours.
50 μL luciferase solution (Bright-Glo, Promega) was added to each well […] the 48 h incubation. The plates were incubated at room temperature for 5 min under gentle shaking. Luminescence signaling was measured with a plate reader (PHERAstar FS, BMG). The IC50 (potency) of compounds was calculated based on the inhibition of luminescence signaling.
For orientation: Reporter assays use an easily measured gene product as a stand-in for the process of interest.
As to `Cc1cc(-c2ccc(CNc3ncnc(-c4ccc5ncccc5c4)c3F)cc2)cc[n+]1[O-]` [Compound A-64, 4-(4-((5-fluoro-6-(quinolin-6-yl)pyrimidin-4-ylamino)methyl)phenyl)-2-methylpyridine 1-oxide], the IC50 was found to be 16 nM. In the case of `COc1cc(CNc2ncnc(-c3ccc4ncccc4c3)c2F)cnc1-c1ccnc(C)c1` [Compound A-65] it was 0.44 nM. For the molecule `Fc1c(NCc2ccc(-c3ccnnc3)cc2)ncnc1-c1ccc2ncccc2c1` [Compound A-67], the half-maximal inhibitory concentration (IC50) turned out to be 10 nM.

Take `O=S1(=O)CCN(c2ccc(CNc3ncnc(-c4ccc5ncccc5c4)c3F)cn2)CC1` [Compound A-68]: the IC50 was found to be 16 nM. In the case of `Cc1cc(-c2ncc(CNc3ncnc(C#Cc4cccnc4)c3F)cc2F)ccn1` [Compound A-69, 5-fluoro-N-((3-fluoro-2′-methyl-2,4′-bipyridin-5-yl)methyl)-6-(pyridin-3-ylethynyl)pyrimidin-4-amine] it was 73 nM; in that of `Cc1cc(-c2ccc(CNc3ncnc(N4CCc5ccccc5C4C)c3F)cc2)ccn1` (stereo not drawn) [Compound A-70], 147 nM; in that of `N#Cc1cnc2cc(CNc3ncnc(-c4ccc5ncccc5c4)c3F)ccc2c1` [Compound A-71], 0.29 nM. Turning to `N#Cc1cnc2cc(CNc3ncnc(N4CCc5ncccc5C4)c3F)ccc2c1` [Compound A-72], the IC50 was found to be 0.64 nM. With `N#Cc1ccc2nc(CNc3ncnc(N4CCc5ncccc5C4)c3F)ccc2c1` [Compound A-74] the figure was 1.6 nM.

Consider `N#Cc1ccc2cc(CNc3ncnc(-c4ccc5ncccc5c4)c3F)cnc2c1` [Compound A-75], for which the half-maximal inhibitory concentration (IC50) was 0.52 nM.

`N#Cc1ccc2cc(CNc3ncnc(N4CCc5ncccc5C4)c3F)cnc2c1` [Compound A-76]: the IC50 was found to be 1.3 nM. With `Fc1c(NCc2ccc(-c3ccncn3)cc2)ncnc1-c1ccc2ncccc2c1` [Compound A-77], the IC50 was 1.6 nM. In the case of `Cc1cc(-c2ncc(CNc3ncnc(N4CCS(=O)(=O)CC4)c3F)cc2F)ccn1` [Compound A-79] it was 416 nM; in that of `Cc1cc(-c2ncc(CNc3ncnc(N4CCNC(=O)C4)c3F)cc2F)ccn1` [Compound A-80], 768 nM. With `Cc1cc(-c2ncc(CNc3ncnc(NCC4CC4)c3F)cc2F)ccn1` [Compound A-81] the figure was 625 nM; with `Cc1cc(-c2ncc(CNc3ncnc(NCc4cccnc4)c3F)cc2F)ccn1` [Compound A-82], 338 nM.

In the case of `Cn1nc(CNc2ncnc(-c3ccc4ncccc4c3)c2F)ccc1=O` [Compound A-83], the IC50 worked out at 3000 nM. In the case of `COc1cc(CNc2ncnc(-c3cc4cccnc4cn3)c2F)cnc1-c1ccnc(C)c1` [Compound A-84] it was 0.26 nM; in that of `Cc1cc(-c2ncc(CNc3ncnc(-c4cc5cccnc5cn4)c3F)cc2F)ccn1` [Compound A-85, 5-fluoro-N-((3-fluoro-2′-methyl-2,4′-bipyridin-5-yl)methyl)-6-(1,7-naphthyridin-6-yl)pyrimidin-4-amine], 0.14 nM; in that of `Cc1cc(-c2ncc(CNc3ncnc(-c4cc5cccnc5cn4)c3F)cc2C#N)ccn1` [Compound A-86], 0.34 nM. In the case of `Cc1cc(-c2ncc(CNc3ncnc(N4CCn5nccc5C4)c3F)cc2F)ccn1` [Compound A-87] it was 0.51 nM; in that of `Cc1cc(-c2ncc(CNc3ncnc(N4Cc5cccnc5C4)c3F)cc2F)ccn1` [Compound A-88], 7.7 nM; in that of `Cc1cc(-c2ncc(CNc3ncnc(N4CCOc5ncccc5C4)c3F)cc2F)ccn1` [Compound A-89], 14 nM. For `Cc1cc(-c2ncc(CNc3ncnc(N4CCc5nccnc5C4)c3F)cc2F)ccn1` [Compound A-90], the IC50 was determined as 1.2 nM. On to `Cc1cc(-c2ncc(CNc3ncnc(N4CCn5nnnc5C4)c3F)cc2C#N)ccn1` [Compound A-91], for which the IC50 was determined as 53 nM.

With `Cc1cc(-c2ncc(CNc3ncnc(N4CCn5nncc5C4)c3F)cc2C#N)ccn1` [Compound A-92], the IC50 was 10 nM. With `Cc1cc(-c2ncc(CNc3ncnc(N4CCn5nnnc5C4)c3F)cc2F)ccn1` [Compound A-93] the figure was 40 nM; with `COc1cc(CNc2ncnc(N3CCn4nccc4C3)c2F)cnc1-c1ccnc(C)c1` [Compound A-94], 0.8 nM; with `Cc1cc(-c2ncc(CNc3ncnc(N4CCn5nncc5C4)c3F)cc2F)ccn1` [Compound A-95], 15 nM.

Consider `Cc1cc(-c2ncc(CNc3nccc(-c4ccn5nccc5n4)c3F)cc2C#N)ccn1` [Compound A-96], for which the half-maximal inhibitory concentration (IC50) turned out to be 0.2 nM. In the case of `Cc1cc(-c2ccc(CNc3nccc(-c4ccc5ncccc5c4)c3F)cc2)ccn1` [Compound A-97] it was 0.18 nM; in that of `Cc1cc(-c2ncc(CNc3nccc(-c4ccc5ncccc5c4)c3F)cc2F)ccn1` [Compound A-98], 0.06 nM; in that of `Cc1cc(-c2ncc(CNc3nccc(-c4ccc5ncccc5c4)c3F)cc2C#N)ccn1` [Compound A-99], 0.11 nM. In the case of `Cc1cc(-c2ncc(CNc3nccc(-c4ccc5ncccc5c4)c3F)cn2)ccn1` [Compound A-100], the IC50 came out at 0.27 nM. Regarding `Cc1cc(-c2ccc(CNc3nccc(-c4ccc5ncccc5c4)c3F)cn2)ccn1` [Compound A-101], the IC50 was 0.31 nM. Consider `Cc1cc(-c2ccc(C(C)Nc3nccc(-c4ccc5ncccc5c4)c3F)cc2)ccn1` (stereo not drawn) [Compound A-102], for which the half-maximal inhibitory concentration (IC50) was 0.54 nM. On to `Cc1cc(-c2ncc(CNc3nccc(-c4cc5cccnc5cn4)c3F)cc2F)ccn1` [Compound A-103], for which the IC50 came out at 0.12 nM.

Take `Fc1c(-c2ccc3ncccc3c2)ccnc1NCc1ccc(-c2ccncc2)cc1` [Compound A-104]: the IC50 stood at 0.11 nM. With `Fc1c(-c2ccc3ncccc3c2)ccnc1NCc1ccc(-n2ccnc2)cc1` [Compound A-105] the figure was 5.2 nM; with `COc1cc(CNc2nccc(-c3ccc4ncccc4c3)c2F)cnc1-c1ccnc(C)c1` [Compound A-106], 0.24 nM. In the case of `Cc1cn(-c2ccc(CNc3nccc(-c4ccc5ncccc5c4)c3F)cc2)cn1` [Compound A-107] it was 16 nM; in that of `Cc1cc(-c2ncc(CNc3nccc(-c4ccc5ncccc5n4)c3F)cc2F)ccn1` [Compound A-108], 1 nM; in that of `N#Cc1ccc2nc(CNc3nccc(-c4ccc5ncccc5c4)c3F)ccc2c1` [Compound A-109], 10 nM. As to `Cc1cc(-c2ncc(CNc3nccc(-c4ccc5nnccc5c4)c3F)cc2F)ccn1` [Compound A-110], the IC50 is 1 nM. With `O=S1(=O)CCN(c2ccc(CNc3nccc(-c4ccc5ncccc5c4)c3F)cn2)CC1` [Compound A-111] the figure was 10 nM; with `CS(=O)(=O)CCNc1ccc(CNc2nccc(-c3ccc4ncccc4c3)c2F)cn1` [Compound A-112], 10 nM. In the case of `Cn1nccc1-c1ccc(CNc2nccc(-c3ccc4ncccc4c3)c2F)cc1` [Compound A-113] it was 16 nM.

On to `Cc1cc(-c2ncc(CNc3nccc(-c4ccc5nonc5c4)c3F)cc2F)ccn1` [Compound A-114], for which the IC50 is 8 nM. In the case of `Cc1cc(-c2ncc(CNc3nccc(-c4cncc(F)c4)c3F)cc2F)ccn1` [Compound A-115] it was 7 nM; in that of `Cc1cc(-c2ncc(CNc3nccc(-c4cncc(Cl)c4)c3F)cc2F)ccn1` [Compound A-116], 8 nM. With `Cc1cc(-c2ncc(CNc3nccc(-c4ccc(=O)n(C)c4)c3F)cc2F)ccn1` [Compound A-117] the figure was 2 nM. As to `N#Cc1cnc2cc(CNc3nccc(-c4ccc5ncccc5c4)c3F)ccc2c1` [Compound A-118], the IC50 was determined as 318 nM. For the molecule `N#Cc1ccc2cc(CNc3nccc(-c4ccc5ncccc5c4)c3F)cnc2c1` [Compound A-119], the IC50 is 10 nM. On to `N#Cc1ccc(NCCNc2nccc(-c3ccc4ncccc4c3)c2F)nc1` [Compound A-120], for which the IC50 worked out at 12 nM.

On to `Cc1cc(-c2ncc(CNc3nccc(-c4cc5cccnc5cn4)c3F)cc2C#N)ccn1` [Compound A-121, 5-((3-fluoro-4-(1,7-naphthyridin-6-yl)pyridin-2-ylamino)methyl)-2′-methyl-2,4′-bipyridine-3-carbonitrile], for which the IC50 stood at 0.06 nM. For the molecule `COc1cc(CNc2nccc(-c3cc4cccnc4cn3)c2F)cnc1-c1ccnc(C)c1` [Compound A-122], the IC50 was found to be 0.13 nM.

With `Cc1cc(-c2ncc(CNc3nccc(-c4ccc5ncnn5c4)c3F)cc2F)ccn1` [Compound A-123], the IC50 came to 0.12 nM. In the case of `Cc1cc(-c2ncc(CNc3nccc(-c4ccc5nccnc5c4)c3F)cc2F)ccn1` [Compound A-124], the IC50 was found to be 0.12 nM. In the case of `COc1cc(CNc2nccc(-c3ccc4ncccc4n3)c2F)cnc1-c1ccnc(C)c1` [Compound A-125] it was 0.06 nM; in that of `Cc1cc(-c2ncc(CNc3nccc(-c4ccc5ncccc5n4)c3F)cc2C#N)ccn1` [Compound A-126], 0.04 nM; in that of `Cc1cc(-c2ccnc(NCc3cnc(-c4ccnc(C)c4)c(C#N)c3)c2F)ccn1` [Compound A-127], 0.34 nM.

As to `Cc1cc(-c2ncc(CNc3nccc(-c4cnn(C)c4)c3F)cc2C#N)ccn1` [Compound A-128], the IC50 came to 1.8 nM.

As for `COc1cncc(-c2ccnc(NCc3cnc(-c4ccnc(C)c4)c(C#N)c3)c2F)c1` [Compound A-129], the IC50 was 0.4 nM.
